According to PubChem BioAssay AID1996:
In brackets after ≈: the same amount, converted by molar mass.

conditions: buffer; pH 7.4; 200.0 µM

Structure (SMILES) | solubility kinetic
CCN1C(=O)C(=Cc2ccc(N3CCOCC3)o2)C(=O)N(CC)C1=S | 1.1 µg/mL (≈ 3.03 µM)
O=C(Nc1ccc(CN2CCOCC2)cc1)c1ccc(Br)cc1 | 0.6 µg/mL (≈ 1.6 µM)
Cc1ccc(-n2c(SCC(=O)NCC3CCCO3)nc3ccccc3c2=O)cc1 (stereo not given) | 32.4 µg/mL (≈ 79.1 µM)
O=C(NC1CCSc2ccccc21)c1cccc(OC(F)F)c1 (stereo not given) | 4.5 µg/mL (≈ 13.4 µM)
CNC(=O)/C(C#N)=C/c1cn(CC(=O)OC)c2ccccc12 | 7.8 µg/mL (≈ 26.2 µM)
COc1ccc(CN2CCOCCOCCOCCOCCOCC2)cc1 | > 57.5 µg/mL
Cc1ccc(O)c(CNc2cccc(C)n2)c1 | 22.5 µg/mL (≈ 98.6 µM)
CC1c2cccn2CCN1S(=O)(=O)c1ccc(F)cc1 (stereo not given) | > 44.2 µg/mL
CCCCS(=O)(=O)N1CCC(C(=O)NCC2CCCO2)CC1 (stereo not given) | 46 µg/mL (≈ 138 µM)
COc1ccc(Cl)cc1NC(=O)NN1CCN(C)CC1 | > 44.8 µg/mL
CCC12CN3CCN(CC(C3)/C1=N\NC(=O)c1ccc(F)cc1)C2 | > 49.6 µg/mL
Cc1csc(NC(=O)c2cc3ccccc3o2)n1 | 16 µg/mL (≈ 61.9 µM)
O=C(CCC1CCCCC1)Nc1ccc(C(=O)c2ccncc2)cc1 | < 0.4 µg/mL
CNC(=S)N(Cc1ccc(Cl)cc1)Cc1cccs1 | 16 µg/mL (≈ 51.5 µM)
CC(C)C(C(=O)Nc1ccncc1)c1ccc(Cl)cc1 (stereo not given) | > 43.3 µg/mL
Cc1cc(=O)oc2cc(OCC(=O)N3CCOCC3)c(Cl)cc12 | > 50.7 µg/mL
COc1ccc(S(=O)(=O)N2CCN(Cc3cccnc3)CC2)cc1 | > 52.1 µg/mL
Cc1ccccc1NC(=S)NCCSc1ccc(Cl)cc1 | 3.3 µg/mL (≈ 9.79 µM)
COc1ccccc1NC(=O)CCSc1nc(C)cc(C)n1 | 38.4 µg/mL (≈ 121 µM)
O=c1c2ccccc2ncn1CCOc1ccccc1[N+](=O)[O-] | 3.2 µg/mL (≈ 10.3 µM)
O=C(CNC(=O)c1ccc(Cl)cc1)Nc1ccccc1C(F)(F)F | 3.4 µg/mL (≈ 9.53 µM)
Cc1ccc(N2CC(C(=O)NC3CC3)CC2=O)cc1 (stereo not given) | > 38.7 µg/mL

Structure (SMILES) | solubility kinetic
CC(C)=CC(=O)OCC(=O)Nc1cc(C)ccc1C | 15 µg/mL (≈ 57.4 µM)
COCCN1C(=O)C(=O)/C(=C(/O)c2ccc(C)cc2)C1c1ccccn1 (stereo not given) | > 52.9 µg/mL
O=C(CN1C(=O)C2CCCCC2C1=O)OCC(=O)c1ccc(F)cc1 (stereo not given) | 49.5 µg/mL (≈ 143 µM)
COc1ccc(C(CNC(=O)c2ccc3c(c2)CCC3)N(C)C)cc1 (stereo not given) | > 50.8 µg/mL
CC(C(=O)NC(C)(C)C)N1C(=O)c2cccc3cccc(c23)C1=O (stereo not given) | 40.2 µg/mL (≈ 124 µM)
N#Cc1ccc(CN2C=NS(=O)(=O)c3ccccc32)cc1 | 43.7 µg/mL (≈ 147 µM)
CCNc1nc(NCC)nc(OCC(=O)O)n1 | > 36.2 µg/mL
COC(=O)c1ccc(C2Nc3cccc4cccc(c34)N2)cc1 | 3.5 µg/mL (≈ 11.5 µM)
CCCOc1ncnc2c1[nH]c1ccc(OC)cc12 | 0.5 µg/mL (≈ 1.94 µM)
N#CCc1ccc(NC(=O)Nc2cccc3ccccc23)cc1 | 0.6 µg/mL (≈ 1.99 µM)
CCOc1ccc(CNC(=S)Nc2ccccc2)cc1Cl | 1.6 µg/mL (≈ 4.99 µM)
CCOc1ccc(NC(=O)CCN2C(=S)NC(C)(C)CC2C)cc1 (stereo not given) | 41.5 µg/mL (≈ 119 µM)
CCCCn1cnc2c(oc3ccccc32)c1=O | > 36.3 µg/mL
CC1CN(Cc2ccccc2)c2nc3c(c(=O)[nH]c(=O)n3C)n2C1 (stereo not given) | > 48.8 µg/mL
CC(=O)Nc1ccc(SCc2ncc(-c3ccccc3)o2)cc1 | 45.3 µg/mL (≈ 140 µM)
COc1ccc(-c2noc(CSc3nc(N)cc(=O)[nH]3)n2)cc1 | 7.7 µg/mL (≈ 23.2 µM)
CC(C)(C)N/C=C(\C#N)S(=O)(=O)c1ccc(Br)cc1 | 7.7 µg/mL (≈ 22.4 µM)
O=C(Nc1ccccc1)c1cccc(=O)o1 | > 32.3 µg/mL
CC(C)(C)c1ccc(COn2ccnc2)cc1 | 27.1 µg/mL (≈ 118 µM)
COc1ccccc1C(=O)NCCC(=O)NC1=NCCS1 | > 46.1 µg/mL
Clc1ccc(C(c2ccccc2)N2CCN(c3ccccn3)CC2)cc1 (stereo not given) | 0.9 µg/mL (≈ 2.47 µM)
O=C(OCc1ccccc1)c1cccnc1Cl | 32.5 µg/mL (≈ 131 µM)

Structure (SMILES) | solubility kinetic
Cc1ccc(S(=O)(=O)/N=C(/c2ccccc2)N(C)C)c(C)c1 | > 47.5 µg/mL
COc1ccccc1NC(=O)[C@@H]1CCCN1S(=O)(=O)c1ccc(Cl)cc1 | 32.4 µg/mL (≈ 82.1 µM)
CC(C)c1nc(SCC(=O)Nc2cccc3ccccc23)n[nH]1 | > 49 µg/mL
CC(=O)N1CCN(CC(=O)Nc2ccccc2C(=O)Nc2ccccc2)CC1 | > 57.1 µg/mL
Cc1onc(-c2c(F)cccc2Cl)c1C(=O)NCc1ccccc1 | 49.7 µg/mL (≈ 144 µM)
CCOc1ccccc1NC(=O)Nc1ccsc1C(=O)OC | 7.9 µg/mL (≈ 24.7 µM)
Fc1ccccc1N1CCN(Cc2cnc(Cl)s2)CC1 | 37.1 µg/mL (≈ 119 µM)
CC(NC(=O)C12CC3CC(C)(CC(C)(C3)C1)C2)c1ccncc1 (stereo not given) | 41.9 µg/mL (≈ 134 µM)
CN(CC(=O)Nc1cccc([N+](=O)[O-])c1)S(=O)(=O)c1ccccc1 | > 52.4 µg/mL
CC(NC(=O)Nc1ccc(Cl)cc1)c1ccccc1 (stereo not given) | 1.9 µg/mL (≈ 6.92 µM)
O=C(NCCc1ccccc1)C1(S(=O)(=O)c2ccc(Cl)cc2)CC1 | 33.9 µg/mL (≈ 93.2 µM)
Cc1ccc2cc(NC(=O)c3ccccc3)ccc2n1 | > 39.3 µg/mL
Cc1ccc(CNc2ccc3c(c2)nc(C)n3C)cc1 | 38.3 µg/mL (≈ 144 µM)
Cc1ccc(S(=O)(=O)NC(=O)Nc2ccc(OC(F)F)cc2)cc1 | 52.3 µg/mL (≈ 147 µM)
O=C(Nc1ccc2[nH]c(=O)[nH]c2c1)c1ccc(Br)o1 | 8.3 µg/mL (≈ 25.8 µM)
CN1C/C(=C/c2cccs2)C(=O)/C(=C\c2cccs2)C1 | 24.6 µg/mL (≈ 81.6 µM)
Cc1ccc(S(=O)(=O)N(C)C)cc1NC(=O)C(C)OC(=O)c1cc[n+]([O-])cc1 (stereo not given) | > 61.1 µg/mL
NS(=O)(=O)c1ccc(NC(=S)NC(=O)C2CCCCC2)cc1 | > 51.2 µg/mL
COc1cccc(NC(=O)COC(=O)C2=NN(c3ccccc3)C(=O)CC2)c1 | > 57.2 µg/mL
O=C(Nc1nc2ccccc2s1)c1ccc(F)cc1 | 0.6 µg/mL (≈ 2.2 µM)
O=C(c1ccccc1)N1CCN(C(=O)c2cccnc2)CC1 | > 44.3 µg/mL
Cc1cc(-c2ccccc2)n2ncnc2n1 | > 31.5 µg/mL

Structure (SMILES) | solubility kinetic
CCc1ccccc1NC(=O)C1CCCC1 | 29.7 µg/mL (≈ 137 µM)
Cc1ccc(CC(=O)N2CCN(C)CC2)cc1 | > 34.8 µg/mL
O=C(Nc1nccs1)c1ccc(Cl)c([N+](=O)[O-])c1 | 6.9 µg/mL (≈ 24.3 µM)
CCn1c2ccccc2c2cc(C#N)c(N)nc21 | 0.7 µg/mL (≈ 2.96 µM)
O=C(CN1C(=O)c2ccccc2S1(=O)=O)NCCc1ccc(F)cc1 | > 54.4 µg/mL
O=c1[nH]c(-c2ccccc2)nc(-c2ccccc2)c1Cl | 2.4 µg/mL (≈ 8.49 µM)
CCN(C(=O)c1cn(C)c(=O)c2ccccc12)c1ccccc1F | > 48.7 µg/mL
CCN1CSC(=S)N(Cc2ccccc2)C1 | 37.5 µg/mL (≈ 149 µM)
Cc1nc(=O)c(-c2ccccc2)c(C)n1-c1ccccc1 | > 41.5 µg/mL
COc1cccc(NC(=O)c2ccc3c(c2)OCO3)c1 | > 40.7 µg/mL
Cc1cccnc1NC(=O)c1ccc(OCc2c(C)noc2C)cc1 | 43.7 µg/mL (≈ 130 µM)
O=C(COc1cc(F)ccc1[N+](=O)[O-])NCCN1C(=O)CSC1=O | > 53.6 µg/mL
O=C(NCC1CC1)c1cc([N+](=O)[O-])cc([N+](=O)[O-])c1 | > 39.8 µg/mL
COc1ccc(OC)c(NC(=O)c2nc(-c3ccccc3)oc2C)c1 | 3.1 µg/mL (≈ 9.16 µM)
CC(C)C1N(C(N)=S)N=CC1(C)C (stereo not given) | > 29.9 µg/mL
O=C(/C=C/c1ccc(S(=O)(=O)N2CCOCC2)cc1)Nc1ccc(F)c(F)c1F | 6.9 µg/mL (≈ 16.2 µM)
COc1cccc(/C=N/NC(=O)c2ccc3nc[nH]c3c2)c1 | > 44.1 µg/mL
COc1ccc(C(=O)Nc2cccc3nc(C)ccc23)c(OC)c1 | 11.7 µg/mL (≈ 36.3 µM)
COC(=O)c1sccc1NC(=O)CC1NCCNC1=O (stereo not given) | 42.1 µg/mL (≈ 142 µM)
